Measurements as given in patent US20160050929A1, “METHODS OF CONTROLLING NEONICOTINOID RESISTANT PESTS” (SYNGENTA PARTICIPATIONS AG, priority 2013, published 2016).

Test system: Orius laevigatus
Assay: Safety to beneficial species: test on Orius laevigatus
Assay type: in vivo
Settings: Orius laevigatus adults; for Corrected Mortality (%) 2 DAI: 2 days after infestation; for Corrected Mortality (%) 4 DAI: 4 days after infestation
Protocol: Phaseolus vulgaris var. Fulvio (french bean) plants were reduced to one leaf. With the leaves held in a horizontal position, a track sprayer was used to treat the plants at a rate corresponding to […]. Once dry, leaf discs were collected from the plants and placed treated side up in petri dishes containing 1% water agar.
A paper triangle was added for shelter, and a suitable amount of Ephestia eggs were added as a food supply. Five (5) Orius laevigatus (predatory bug, Syngenta Bioline) adults were added and the dishes closed with a cotton filter and perforated plastic lid. The dishes were incubated in a climate chamber at 25° C., 75% relative humidity, 16:8 h light/dark regime.
Six replicates were provided for each treatment and concentration level. The number of living and dead Orius laevigatus were counted two and four days after infestation (DAI). At the day two evaluation the food supply was replenished.

Row | Structure (SMILES) | Corrected Mortality (%) 2 DAI (rate 50 ppm) [%] | Corrected Mortality (%) 4 DAI (rate 50 ppm) [%] | Corrected Mortality (%) 2 DAI (rate 100 ppm) [%] | Corrected Mortality (%) 4 DAI (rate 100 ppm) [%] | Corrected Mortality (%) 2 DAI (rate 200 ppm) [%] | Corrected Mortality (%) 4 DAI (rate 200 ppm) [%]
1 | O=[N+]([O-])NC1=NCCN1Cc1ccc(Cl)nc1 [Imidacloprid, imidacloprid] | 11 | 30 | 43 | 65 | 75 | 100
2 | C#CCN1[C@@H]2CC[C@H]1C[C@](C#N)(c1cncc(C#C)c1)C2 [Compound 1.070] | 0 | 0 | 0 | 0 | 0 | 0
